Laboratory results as given in patent US9476099B2 (TRUSTEES OF DARTMOUTH COLLEGE, priority 2012, dated 2016).

Tested on: gene promoters in NT2/D1-R1 control and DNMT3B knockdown cells
Experiment: Genome-wide promoter methylation analysis, HumanMethylation27 BeadChip (Table 15)
Format: cell-based, human
Conditions: three days low-dose decitabine, control NT2/D1-R1
Protocol: DNA methylation analysis was performed in samples in triplicate using the […] […] assay with the HumanMethylation27 BeadChip ([…]) and the BeadChip was scanned on the BeadArray Reader ([…]), according to the manufacturer's instructions. Raw data was normalized and analyzed with Genome Studio software ([…]). The HumanMethylation27 BeadChip assays 27,578 CpGs covering more than 14,000 genes, mostly from promoter regions. […] Hierarchical clustering was performed as stated above. HumanMethylation27 BeadChip data and gene expression microarray data were submitted to NCBI GEO.

**Q.** `Nc1ncn([C@H]2C[C@H](O)[C@@H](CO)O2)c(=O)n1` [decitabine, 5-aza-deoxycytidine] was tested. Which “genes with altered promoter methylation” value did it give?
**A.** Its value is 388 genes.

**Q.** What about the “genes with decreased levels of promoter methylation” value (of 388 genes) of the same compound?
**A.** The value was 305 genes.
